≈ marks a conversion by molar mass, not a printed value.

What all share (format): functional
The test system of one assay is Pseudomonas aeruginosa. Briefly: Antibacterial activity against Pseudomonas aeruginosa after 18 hrs by broth microdilution method. In general terms: Dilution methods test growth across graded concentrations, often in twofold steps.
For another assay, the system named is Bacillus subtilis. Briefly: Antibacterial activity against Bacillus subtilis after 18 hrs by broth microdilution method.
For a further assay, the system named is Escherichia coli. Briefly: Antibacterial activity against Escherichia coli after 18 hrs by broth microdilution method.
The next assay has as its system Staphylococcus aureus. Kind of assay: Antibacterial activity against Staphylococcus aureus after 18 hrs by broth microdilution method.

On to `O=C(CSC(=S)N[C@H]1CCOC1=O)Nc1ccccc1F`, for which the MIC50 against Pseudomonas aeruginosa was over 128 µg/mL; against Bacillus subtilis it was over 128 µg/mL; against Escherichia coli it was 40.5 µg/mL (≈ 123 µM); against Staphylococcus aureus, 6.53 µg/mL (≈ 19.9 µM).
Take `O=C(CSC(=S)N[C@H]1CCOC1=O)Nc1ccc(Cl)cc1`: the MIC50 was over 128 µg/mL against Pseudomonas aeruginosa, over 128 µg/mL in the assay with Bacillus subtilis, over 128 µg/mL in the assay on Escherichia coli and 3.5 µg/mL (≈ 10.1 µM) against Staphylococcus aureus.
Turning to `O=C(CSC(=S)N[C@H]1CCOC1=O)Nc1ccc(Br)cc1`, the MIC50 against Pseudomonas aeruginosa stood at 54.5 µg/mL (≈ 140 µM); in the assay with Bacillus subtilis, 30.2 µg/mL (≈ 77.7 µM); against Escherichia coli, 24.9 µg/mL (≈ 63.9 µM); against Staphylococcus aureus, 3.69 µg/mL (≈ 9.48 µM).
Turning to `Cc1cccc(NC(=O)CSC(=S)N[C@H]2CCOC2=O)c1C`, the MIC50 against Pseudomonas aeruginosa, with Bacillus subtilis, with Escherichia coli and with Staphylococcus aureus was over 128 µg/mL throughout.
Regarding `Cc1cccc(NC(=O)CSC(=S)N[C@H]2CCOC2=O)c1`, the MIC50 against Pseudomonas aeruginosa is 37.2 µg/mL (≈ 115 µM); against Bacillus subtilis it was over 128 µg/mL; with Escherichia coli it was over 128 µg/mL; with Staphylococcus aureus, over 128 µg/mL.
Consider `O=C(CSC(=S)N[C@H]1CCOC1=O)Nc1cccc(Cl)c1`, for which the MIC50 with Pseudomonas aeruginosa, against Bacillus subtilis, in the assay on Escherichia coli and in the assay with Staphylococcus aureus was over 128 µg/mL throughout.
For the molecule `O=C(CSC(=S)N[C@H]1CCOC1=O)Nc1ccccc1`, the MIC50 against Pseudomonas aeruginosa is 48.5 µg/mL (≈ 156 µM); against Bacillus subtilis, 47.9 µg/mL (≈ 154 µM); in the assay on Escherichia coli it was over 128 µg/mL; against Staphylococcus aureus, 7.72 µg/mL (≈ 24.9 µM).
Regarding `O=C(CSC(=S)N[C@H]1CCOC1=O)Nc1ccccc1Cl`, the MIC50 against Pseudomonas aeruginosa was over 128 µg/mL; against Bacillus subtilis, 9.63 µg/mL (≈ 27.9 µM); with Escherichia coli, over 128 µg/mL; in the assay on Staphylococcus aureus, 5.62 µg/mL (≈ 16.3 µM).
In the case of `Cc1ccc(NC(=O)CSC(=S)N[C@H]2CCOC2=O)cc1`, the MIC50 is 63.8 µg/mL (≈ 197 µM) with Pseudomonas aeruginosa, over 128 µg/mL against Bacillus subtilis, 30.6 µg/mL (≈ 94.3 µM) against Escherichia coli and 3.49 µg/mL (≈ 10.8 µM) in the assay with Staphylococcus aureus.
As to `O=C(CSC(=S)N[C@H]1CCOC1=O)Nc1ccc(Cl)cc1Cl`, the MIC50 in the assay on Pseudomonas aeruginosa is over 128 µg/mL; in the assay on Bacillus subtilis, 5.6 µg/mL (≈ 14.8 µM); in the assay with Escherichia coli it was 21 µg/mL (≈ 55.4 µM); against Staphylococcus aureus, 4.9 µg/mL (≈ 12.9 µM).
The like results for `COc1ccc(NC(=O)CSC(=S)N[C@H]2CCOC2=O)cc1` were, in that order, over 128 µg/mL, over 128 µg/mL, 54.2 µg/mL (≈ 159 µM) and 9.52 µg/mL (≈ 28 µM).
As for `O=C(CSC(=S)N[C@H]1CCOC1=O)Nc1cccc(C(F)(F)F)c1`, the MIC50 in the assay on Pseudomonas aeruginosa is over 128 µg/mL; in the assay with Bacillus subtilis it was 1.44 µg/mL (≈ 3.81 µM); against Escherichia coli, over 128 µg/mL; with Staphylococcus aureus it was 5.81 µg/mL (≈ 15.3 µM).
In the case of `O=C(CSC(=S)N[C@H]1CCOC1=O)Nc1cccc([N+](=O)[O-])c1`, the MIC50 with Pseudomonas aeruginosa was 59.9 µg/mL (≈ 169 µM); against Bacillus subtilis, 6.29 µg/mL (≈ 17.7 µM); with Escherichia coli, 12.8 µg/mL (≈ 36 µM); in the assay with Staphylococcus aureus, 8.67 µg/mL (≈ 24.4 µM).
The like results for `CSC(=S)N[C@H]1CCOC1=O` were, in that order, 31.9 µg/mL (≈ 167 µM), over 128 µg/mL, 17.6 µg/mL (≈ 92 µM) and over 128 µg/mL.
As to `CCSC(=S)N[C@H]1CCOC1=O`, the MIC50 with Pseudomonas aeruginosa is 34.6 µg/mL (≈ 168 µM); in the assay on Bacillus subtilis, over 128 µg/mL; against Escherichia coli, 25.2 µg/mL (≈ 123 µM); against Staphylococcus aureus, over 128 µg/mL.
As for `CCCCSC(=S)N[C@H]1CCOC1=O`, the MIC50 against Pseudomonas aeruginosa is 44.6 µg/mL (≈ 191 µM); in the assay on Bacillus subtilis, over 128 µg/mL; in the assay on Escherichia coli, over 128 µg/mL; in the assay with Staphylococcus aureus it was over 128 µg/mL.
In the case of `CCCCCCSC(=S)N[C@H]1CCOC1=O`, the MIC50 against Pseudomonas aeruginosa, against Bacillus subtilis, in the assay on Escherichia coli and against Staphylococcus aureus was over 128 µg/mL each time.
Regarding `CCCCCCCCSC(=S)N[C@H]1CCOC1=O`, the MIC50 in the assay with Pseudomonas aeruginosa, with Bacillus subtilis, against Escherichia coli and in the assay on Staphylococcus aureus was over 128 µg/mL each time.
In the case of `CCCCCCCCCCCCSC(=S)N[C@H]1CCOC1=O`, the MIC50 was over 128 µg/mL against Pseudomonas aeruginosa, over 128 µg/mL in the assay on Bacillus subtilis, over 128 µg/mL against Escherichia coli and 50.6 µg/mL (≈ 146 µM) with Staphylococcus aureus.
As to `CCCCCCCCCCCCCCSC(=S)N[C@H]1CCOC1=O`, the MIC50 is over 128 µg/mL in the assay on Pseudomonas aeruginosa, over 128 µg/mL with Bacillus subtilis, 67.8 µg/mL (≈ 182 µM) against Escherichia coli and over 128 µg/mL in the assay on Staphylococcus aureus.
As to `C[C@H]1COc2c(N3CCN(C)CC3)c(F)cc3c(=O)c(C(=O)O)cn1c23.C[C@H]1COc2c(N3CCN(C)CC3)c(F)cc3c(=O)c(C(=O)O)cn1c23.O` [LEVOFLOXACIN], the MIC50 against Pseudomonas aeruginosa, in the assay on Bacillus subtilis, in the assay with Escherichia coli and in the assay with Staphylococcus aureus was under 0.25 µg/mL throughout.

What is called MIC50 is an inhibitory concentration at the 50% level, which refers to growth in some studies and to a panel of isolates in others.

(Values after ChEMBL document CHEMBL2401621, “Design, synthesis and antibacterial evaluation of novel AHL analogues” (2013).)
